The structures appear in SMILES notation.

Experiment [1] deals with immobilized PPARγ receptor. Description: Surface Plasmon Resonance sensor (BIAcore) binding test. To be noted: BIAcore sensorgram, Fig. 4. From the text:
Each group consists of 10 animals.
A Surface Plasmon Resonance sensor (BIAcore column) was used to examine whether or not compounds of the present invention bind immobilized PPARγ receptor.

A further experiment concerns PPARγ. Put plainly: transfer (reporter) gene activity assay in transfected COS-1 cells, PPARγ. The experiment is classed as cell-based. To be noted: luciferase reporter, 20 hours. As to the method:
Transfection was performed by a standard procedure using a LipofectAMINE reagent from Life Technologies. A 35 mm Petri dish containing 1 x 10^5 cells dispersed in 2 ml of Dulbecco's minimum medium (DMEM) containing 10% fetal bovine serum was incubated in a CO2 incubator for 17 hours. Then, the medium was removed and cells adhered to the Petri dish were washed with phosphate buffered physiological saline (PBS), after which transfection was performed using a LipofectAMINE reagent. That is, […] of a minimum serum medium OptiMEM (Life Technologies) containing […] of a plasmid bearing the luciferase gene whose expression is controlled by PPAR-responsive elements, […] of a PPAR expression plasmid and 2 mg of a plasmid bearing the β-galactosidase gene for monitoring transfection efficiency was preliminarily mixed with […] of OptiMEM containing 50 ml of LipofectAMINE dissolved therein, and the mixed solution was maintained at room temperature for 15 minutes. A Petri dish containing a mixture of 100 ml of this mixed solution and 400 ml of OptiMEM was incubated in a CO2 incubator at 37°C for 3 hours. The transfection medium was aspirated off from the Petri dish, which was supplied with DMEM containing 10% serum treated with activated carbon and a test compound and incubated at 37°C for 20 hours. […] The medium also contains a solvent for test compounds dimethyl sulfoxide (final concentration 0.1%).
After the medium in the Petri dish was aspirated off, […] of a lysing solution for cultured cells (25 mM Tris phosphate buffer (pH 7.8), 2 mM 1,2-diaminocyclo-hexane-N, N,N',N'-tetraacetate, 10% glycerol, 1% Triton X-100) was added and cells were scraped with rubber policeman. Cells were completely disrupted by freezing and thawing and then centrifuged at 4°C (15,000 rpm, 2 min), and the supernatants were used as test samples. […] The β-galactosidase for monitoring transfection efficiency was measured for fluorescence in a luminometer using Luminescent β-galactosidase detection kit II (Clontech). […]

The next experiment relates to PPARα. Description: transfer (reporter) gene activity assay in transfected COS-1 cells, PPARα. To be noted: luciferase reporter, 20 hours. The experiment is classed as cell-based. As for the experimental part:
Transfection was performed by a standard procedure using a LipofectAMINE reagent from Life Technologies. A 35 mm Petri dish containing 1 x 10^5 cells dispersed in 2 ml of Dulbecco's minimum medium (DMEM) containing 10% fetal bovine serum was incubated in a CO2 incubator for 17 hours. Then, the medium was removed and cells adhered to the Petri dish were washed with phosphate buffered physiological saline (PBS), after which transfection was performed using a LipofectAMINE reagent. […]
After the medium in the Petri dish was aspirated off, […] of a lysing solution for cultured cells (25 mM Tris phosphate buffer (pH 7.8), 2 mM 1,2-diaminocyclo-hexane-N, N,N',N'-tetraacetate, 10% glycerol, 1% Triton X-100) was added and cells were scraped with rubber policeman. […] The β-galactosidase for monitoring transfection efficiency was measured for fluorescence in a luminometer using Luminescent β-galactosidase detection kit II (Clontech). […]
On the technique in general: Reporter assays use an easily measured gene product as a stand-in for the process of interest.

Regarding `COc1c(C=O)c(C)c(Cl)c(OCC(=O)O)c1C/C=C(C)/C=C/C1(C)C(C)CCC(=O)C1C` (stereo not drawn) [Compound 27, 4-O-Carboxymethyl-2-O-methylascochlorin], the “binding to immobilized PPARγ receptor (SPR signal)” value in experiment [1] is recorded as “clearly generates a signal”. Further, the “Activation of receptors PPARγ” value in the experiment on PPARγ was “++ (Activation peak appears at 10^-5-10^-4M.)”.

As to `C/C(=C\Cc1c(O)c(Cl)c(C)c(C=O)c1O)CC/C=C(\C)C1=CC(=O)C(C)(C)O1` [Dehydroascofuranone], the “Activation of receptors PPARα” value in the experiment with PPARα is “++ (Activation peak appears at 10^-5-10^-4M.)”.
